In US4613588A, “Benzaldehyde and 4,6-O-benzylidene-D-glucose for alleviating pain” (Kaken Pharmaceutical Co. Ltd., priority 1984, dated 1986):
Like-named read-outs stand apart in the source and are kept apart here.

Experiments:
[1] = molecular target: T1, dipeptidylcarboxypeptidase (enkephalinase A) (Macaca fascicularis, UniProt G7NZK8); assay: Enkephalinase A inhibiting effect; format: biochemical; conditions: read-out: enzyme inhibiting effect on enkephalinase A
T1 construct: releases Tyr-Gly-Gly from [3H]Leu-enkephalin
T1 sequence (G7NZK8 2-750): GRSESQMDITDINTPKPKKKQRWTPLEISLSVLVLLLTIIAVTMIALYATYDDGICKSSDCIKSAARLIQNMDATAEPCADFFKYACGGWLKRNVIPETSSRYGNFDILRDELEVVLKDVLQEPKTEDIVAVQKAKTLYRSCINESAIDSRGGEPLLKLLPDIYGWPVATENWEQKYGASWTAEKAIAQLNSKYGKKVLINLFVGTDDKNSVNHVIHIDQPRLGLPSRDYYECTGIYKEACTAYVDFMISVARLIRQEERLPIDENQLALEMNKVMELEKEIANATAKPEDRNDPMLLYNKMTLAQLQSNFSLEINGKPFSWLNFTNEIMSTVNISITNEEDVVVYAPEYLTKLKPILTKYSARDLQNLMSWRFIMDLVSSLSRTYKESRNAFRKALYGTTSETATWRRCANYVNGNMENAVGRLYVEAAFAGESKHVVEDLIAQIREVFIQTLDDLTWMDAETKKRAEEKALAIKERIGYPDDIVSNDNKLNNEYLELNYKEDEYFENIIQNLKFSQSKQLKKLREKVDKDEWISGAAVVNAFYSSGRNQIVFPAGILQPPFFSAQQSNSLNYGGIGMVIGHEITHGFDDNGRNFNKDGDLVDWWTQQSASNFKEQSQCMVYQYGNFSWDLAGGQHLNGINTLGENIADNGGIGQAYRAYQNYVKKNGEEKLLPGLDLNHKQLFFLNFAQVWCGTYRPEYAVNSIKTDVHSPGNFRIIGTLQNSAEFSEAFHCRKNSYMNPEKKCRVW
Experimental: (§1) The cerebrum of Macaca Fascicularis was chopped using anatomical scissors, 3 volumes that of 25 mM tris-hydrochloric acid buffer (pH 7.7) was added thereto and the mixture homogenized. It was then ultracentrifuged (50,000×g), the supernatant was removed, and the obtained precipitants were treated and washed twice using the same buffer (these precipitates contained enkephalin decomposing enzymes in a form combined to the cell membrane).
(§2) Thereafter, 25 mM tris-hydrochloric acid buffer (pH 7.7) containing 1% of Triton X-100 was added to the precipitates to extract enkephalinase. […]
(§3) The obtained enkephalin decomposing enzymes were analyzed by acrylamide electrophoresis to find that they were single proteins respectively.
The enzymatic activity of the respective decomposing enzymes obtained above was measured by the qualitative and quantitative analyses of the decomposition products using [^3 H]-enkephalin or enkephalin as a substrate and employing Porapak Q (produced by Water Associates) column method, high-performance liquid chromatography (HPLC), silica gel thin layer autography, etc.
10 μl of 10 μCi [^3 H] […] Tyr-Gly-Gly was determined using a liquid scintillation counter. […]

[2] = system: aminopeptidase; assay: Aminopeptidase (enkephalin decomposing enzyme) inhibiting effect; format: biochemical, Macaca Fascicularis
Experimental: as §1, §2, §3
(§4) The enzymatic activity of the respective decomposing enzymes obtained above was measured by the qualitative and quantitative analyses of the decomposition products using [^3 H]-enkephalin or enkephalin as a substrate and employing Porapak Q (produced by Water Associates) column method, high-performance liquid chromatography (HPLC), silica gel thin layer autography, etc. […]

[3] = molecular target: T2, dipeptidylaminopeptidase (enkephalinase B) (Macaca fascicularis, UniProt A0A7N9C8Y6); assay: Enkephalinase B inhibiting effect; format: biochemical
T2 construct: releases Tyr-Gly from enkephalin
T2 sequence (A0A7N9C8Y6 1-737): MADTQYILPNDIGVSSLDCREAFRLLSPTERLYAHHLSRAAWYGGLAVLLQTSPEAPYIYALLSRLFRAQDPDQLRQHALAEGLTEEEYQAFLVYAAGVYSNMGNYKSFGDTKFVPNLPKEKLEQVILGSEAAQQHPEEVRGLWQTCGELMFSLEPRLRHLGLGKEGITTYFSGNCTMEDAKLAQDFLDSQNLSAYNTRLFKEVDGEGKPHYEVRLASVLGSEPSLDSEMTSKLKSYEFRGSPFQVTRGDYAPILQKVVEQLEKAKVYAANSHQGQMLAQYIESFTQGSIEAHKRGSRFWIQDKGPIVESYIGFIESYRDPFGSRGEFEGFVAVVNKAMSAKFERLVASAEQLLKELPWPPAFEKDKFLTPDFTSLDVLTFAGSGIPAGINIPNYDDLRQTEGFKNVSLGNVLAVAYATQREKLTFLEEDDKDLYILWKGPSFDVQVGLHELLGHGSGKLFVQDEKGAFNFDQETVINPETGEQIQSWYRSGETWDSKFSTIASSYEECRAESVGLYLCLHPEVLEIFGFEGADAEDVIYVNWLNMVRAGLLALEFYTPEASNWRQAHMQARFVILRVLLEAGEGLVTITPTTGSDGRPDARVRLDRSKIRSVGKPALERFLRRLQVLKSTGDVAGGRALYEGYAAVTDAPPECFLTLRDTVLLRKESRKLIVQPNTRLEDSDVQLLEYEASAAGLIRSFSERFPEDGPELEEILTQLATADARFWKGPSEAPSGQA
Experimental: as §1, §2, §3, §4

[4] = molecular target: T3, angiotensin converting enzyme (Macaca fascicularis, UniProt A0A2K5VWQ5); assay: Angiotensin converting enzyme inhibiting effect; format: biochemical
T3 sequence (A0A2K5VWQ5 31-1307): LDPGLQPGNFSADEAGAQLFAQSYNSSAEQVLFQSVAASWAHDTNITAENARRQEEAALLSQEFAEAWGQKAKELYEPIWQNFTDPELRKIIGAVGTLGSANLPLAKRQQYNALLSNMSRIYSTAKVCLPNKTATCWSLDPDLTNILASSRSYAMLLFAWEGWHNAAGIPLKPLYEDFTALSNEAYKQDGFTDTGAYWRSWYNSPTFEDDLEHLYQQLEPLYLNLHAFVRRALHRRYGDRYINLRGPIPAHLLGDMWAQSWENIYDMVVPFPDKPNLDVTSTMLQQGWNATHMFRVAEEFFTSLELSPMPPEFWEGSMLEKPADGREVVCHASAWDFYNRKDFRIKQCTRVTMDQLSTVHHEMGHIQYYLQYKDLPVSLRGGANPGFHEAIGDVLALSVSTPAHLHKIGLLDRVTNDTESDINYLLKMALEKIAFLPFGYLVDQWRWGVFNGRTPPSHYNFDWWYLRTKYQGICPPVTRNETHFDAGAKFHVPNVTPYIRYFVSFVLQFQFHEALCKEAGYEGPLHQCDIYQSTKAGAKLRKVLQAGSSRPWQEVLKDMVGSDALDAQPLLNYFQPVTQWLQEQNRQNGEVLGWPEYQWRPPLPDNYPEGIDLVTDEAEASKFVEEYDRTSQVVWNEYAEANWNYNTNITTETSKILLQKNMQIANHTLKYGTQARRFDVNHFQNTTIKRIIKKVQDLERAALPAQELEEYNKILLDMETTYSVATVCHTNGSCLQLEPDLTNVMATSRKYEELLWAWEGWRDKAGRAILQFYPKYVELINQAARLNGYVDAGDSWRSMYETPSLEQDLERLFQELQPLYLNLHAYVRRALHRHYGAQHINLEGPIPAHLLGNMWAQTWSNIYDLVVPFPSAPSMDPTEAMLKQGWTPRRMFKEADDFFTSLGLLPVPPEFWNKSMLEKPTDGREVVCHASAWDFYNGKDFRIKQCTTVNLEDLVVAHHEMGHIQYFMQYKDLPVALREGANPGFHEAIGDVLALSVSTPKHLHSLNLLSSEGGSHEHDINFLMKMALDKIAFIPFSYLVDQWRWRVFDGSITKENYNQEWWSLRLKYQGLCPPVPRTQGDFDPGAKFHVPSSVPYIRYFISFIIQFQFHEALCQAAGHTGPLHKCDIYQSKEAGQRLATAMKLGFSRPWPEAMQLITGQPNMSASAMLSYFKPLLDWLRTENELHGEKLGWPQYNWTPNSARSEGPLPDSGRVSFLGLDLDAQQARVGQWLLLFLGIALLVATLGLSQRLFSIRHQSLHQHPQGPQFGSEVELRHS
Experimental: as §1, §2, §3, §4

[5] = Acute toxicity by subcutaneous injection in rats; conditions: rat, in vivo, sc
Source text: Since both benzaldehyde and 4,6-O-benzylidene-D-glucose are substantially non-toxic a wide dosage range may be administered depending on the severity of the pain experienced. The acute toxicity of benzaldehyde and 4,6-O-benzylidene-D-glucose are 5 g/kg or higher and 4 g/kg or higher, respectively, when measured by subcutaneous injection in rats according to conventional toxicity procedures.

[6] = system: carcinomatous pain; assay: Carcinomatous pain treating tests (clinical examples); format: in vivo, human; conditions: one patient
Experimental: Further, using benzaldehyde and 4,6-O-benzylidene-D-glucose the following carcinomatous pain treating tests were conducted.
After hospitalization, 25 mg benzaldehyde tablets (enteric tablets containing benzaldehyde prepared in the above-described Formulation Example 5) were administered at a dosage of 5 tablets, 4 times a day.
Since variety of chemotherapeutics were not administered because there was a threat of strong side effects, the sole administration of 4,6-O-benzylidene-D-glucose was started in such a way that 1,200 mg of a freeze dried preparation thereof was dissolved in 100 ml of physiological saline and administered i.v. at a rate of once a day (time required being ca. 10 minutes).

[7] = Japanese Patent Application Laid-Open No. 108027/1977 and No. 70428/1979; cited from earlier work

SMILES: OC1O[C@@H]2COC(c3ccccc3)O[C@H]2[C@H](O)[C@H]1O (stereo partly drawn) [4,6-O-benzylidene-D-glucose]
- inhibition at 1200 µg/mL ([1]; 1.2 mg/ml): 81%
- enzyme inhibiting effect on aminopeptidase ([2]; 1.2 mg/ml): did not exhibit an enzyme inhibiting effect
- enzyme inhibiting effect on enkephalinase B ([3]; 1.2 mg/ml): did not exhibit an enzyme inhibiting effect
- enzyme inhibiting effect on angiotensin converting enzyme ([4]; 1.2 mg/ml): did not exhibit an enzyme inhibiting effect
- LD50 [5]: ≥ 4000 mg/kg
- pain ([6]; gastric cancer metastasis to bone, 1,200 mg i.v. once a day, 17th to 18th day): the pain almost disappeared
- tumor condition by bone scintillation ([6]; gastric cancer metastasis to bone, 1,200 mg i.v. once a day, 26th day, versus before administration): the tumor condition was the same
- mobility ([6]; gastric cancer metastasis to bone, 1,200 mg i.v. once a day, from 10th day): became able to sit on bed
- carcinostatic effect [7]: known to have carcinostatic effect

SMILES: O=Cc1ccccc1 [benzaldehyde]
- inhibition at 1000 µg/mL [1]: 99%
- enzyme inhibiting effect on aminopeptidase ([2]; 1 mg/ml): did not exhibit an enzyme inhibiting effect
- enzyme inhibiting effect on enkephalinase B ([3]; 1 mg/ml): did not exhibit an enzyme inhibiting effect
- enzyme inhibiting effect on angiotensin converting enzyme ([4]; 1 mg/ml): did not exhibit an enzyme inhibiting effect
- LD50 ([5]; subcutaneous injection, rats, read-out: acute toxicity): ≥ 5000 mg/kg
- pain (subjective symptom) ([6]; mandible cancer relapse, 25 mg enteric tablets (Formulation Example 5), 5 tablets 4 times a day, oral, from 5th day): the pain was eased
- carcinoma size by X-ray examination ([6]; mandible cancer relapse, 25 mg enteric tablets, 5 tablets 4 times a day, oral): did not reduce in size
- pain (subjective symptom) ([6]; mandible cancer relapse, 25 mg enteric tablets, 5 tablets 4 times a day, oral, 7th day): almost no pain
- carcinostatic effect [7]: known to have carcinostatic effect
